# Reference: US10787452B2 (Vertex Pharmaceuticals Incorporated, priority 2012, dated 2020)
# System: HCT116 colorectal cancer cells
# Assay: Cisplatin sensitization assay (96 h cell viability MTS);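 further: compound concentration needed to lower the Cisplatin-alone IC50 by a set fold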
# Assay type: cell-based
# Details: 96 h MTS, compound plus Cisplatin
# Summary of the method: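 Viability is measured with MTS reagent, added after 96 h and developed for 1 h at 37° C. Beforehand, cells receive compound and cisplatin simultaneously in a concentration matrix of 2-fold serial dilutions starting at 10 μM final.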
row,Structure (SMILES),Cisplatin Sensitization Assay
1,"Nc1nn2cc(F)cnc2c1C(=O)Nc1cncc(F)c1N1CCC2(CC1)COC2 [I-N-239, 2-amino-6-fluoro-N-(5-fluoro-4-(2-oxa-7-azaspiro[3.5]nonan-7-yl)pyridin-3-yl)pyrazolo[1,5-a]pyrimidine-3-carboxamide]",+++ (Compounds with a Cisplatin sensitization value of <0.02 μM are marked with “+++.”)
2,"Nc1nn2cc(F)cnc2c1C(=O)Nc1cncc(F)c1C1CCN(C2COC2)CC1 [I-C-13, 2-amino-6-fluoro-N-(5-fluoro-4-(1-(oxetan-3-yl)piperidin-4-yl)pyridin-3-yl)pyrazolo[1,5-a]pyrimidine-3-carboxamide]",++ (Compounds with a Cisplatin sensitization value >0.02 μM but <0.2 μM are marked with “++.”)
3,CNCCCN(C)C(=O)C1CCN(c2c(F)cncc2NC(=O)c2c(N)nn3cc(F)cnc23)CC1 [I-G-17],+ (Compounds with a Cisplatin sensitization value >0.2 μM but <5 μM are marked with “+.”)
4,"Nc1nn2cc(F)cnc2c1C(=O)Nc1cnccc1N1CCN(CC(F)(F)F)CC1 [I-N-20, 2-amino-6-fluoro-N-(4-(4-(2,2,2-trifluoroethyl)piperazin-1-yl)pyridin-3-yl)pyrazolo[1,5-a]pyrimidine-3-carboxamide]",+++ (Compounds with a Cisplatin sensitization value of <0.02 μM are marked with “+++.”)
5,"Nc1nn2cc(F)cnc2c1C(=O)Nc1cncc(C2CC2)c1N1CCN([C@@H]2CCOC2)CC1 [I-N-119, (R)-2-amino-N-(5-cyclopropyl-4-(4-(tetrahydrofuran-3-yl)piperazin-1-yl)pyridin-3-yl)-6-fluoropyrazolo[1,5-a]pyrimidine-3-carboxamide]",++ (Compounds with a Cisplatin sensitization value >0.02 μM but <0.2 μM are marked with “++.”)
6,"Nc1nn2cc(F)cnc2c1C(=O)Nc1cncc(F)c1N1CCC(C(=O)N2CC(F)(F)C2)CC1 [I-G-73, 2-amino-N-(4-(4-(3,3-difluoroazetidine-1-carbonyl)piperidin-1-yl)-5-fluoropyridin-3-yl)-6-fluoropyrazolo[1,5-a]pyrimidine-3-carboxamide]",+++ (Compounds with a Cisplatin sensitization value of <0.02 μM are marked with “+++.”)
7,"CN1CCN(c2c(F)cncc2NC(=O)c2c(N)nn3cc(C(C)(C)C#N)cnc23)CC1 [I-N-138, 2-amino-6-(2-cyanopropan-2-yl)-N-(5-fluoro-4-(4-methylpiperazin-1-yl)pyridin-3-yl)pyrazolo[1,5-a]pyrimidine-3-carboxamide]",++ (Compounds with a Cisplatin sensitization value >0.02 μM but <0.2 μM are marked with “++.”)
8,"CN1CCC(c2c(F)cncc2NC(=O)c2c(N)nn3cc(F)cnc23)CC1 [I-C-14, 2-amino-6-fluoro-N-(5-fluoro-4-(1-methylpiperidin-4-yl)pyridin-3-yl)pyrazolo[1,5-a]pyrimidine-3-carboxamide]",+ (Compounds with a Cisplatin sensitization value >0.2 μM but <5 μM are marked with “+.”)
9,"Nc1nn2cc(F)cnc2c1C(=O)Nc1cnccc1N1CCS(=O)(=O)CC1 [I-N-210, 2-amino-N-(4-(1,1-dioxidothiomorpholino)pyridin-3-yl)-6-fluoropyrazolo[1,5-a]pyrimidine-3-carboxamide]",+++ (Compounds with a Cisplatin sensitization value of <0.02 μM are marked with “+++.”)
10,"Nc1nn2cc(F)cnc2c1C(=O)Nc1cncc(F)c1N1CCC(C(=O)N2CC3(COC3)C2)CC1 [I-G-14, N-(4-(4-(2-oxa-6-azaspiro[3.3]heptane-6-carbonyl)piperidin-1-yl)-5-fluoropyridin-3-yl)-2-amino-6-fluoropyrazolo[1,5-a]pyrimidine-3-carboxamide]",+++ (Compounds with a Cisplatin sensitization value of <0.02 μM are marked with “+++.”)
11,"N#CCc1cnc2c(C(=O)Nc3cnccc3OCCCO)c(N)nn2c1 [I-O-40, 2-amino-6-(cyanomethyl)-N-(4-(3-hydroxypropoxy)pyridin-3-yl)pyrazolo[1,5-a]pyrimidine-3-carboxamide]",++ (Compounds with a Cisplatin sensitization value >0.02 μM but <0.2 μM are marked with “++.”)
12,"CN(C)C(=O)C1CCCN(c2ccncc2NC(=O)c2c(N)nn3cc(F)cnc23)C1 (stereo not drawn) [I-N-290, 2-amino-N-(4-(3-(dimethylcarbamoyl)piperidin-1-yl)pyridin-3-yl)-6-fluoropyrazolo[1,5-a]pyrimidine-3-carboxamide]",++ (Compounds with a Cisplatin sensitization value >0.02 μM but <0.2 μM are marked with “++.”)
13,"Nc1nn2cc(F)cnc2c1C(=O)Nc1cnccc1-c1ccnnc1 [I-C-26, 2-amino-6-fluoro-N-(4-(pyridazin-4-yl)pyridin-3-yl)pyrazolo[1,5-a]pyrimidine-3-carboxamide]",++ (Compounds with a Cisplatin sensitization value >0.02 μM but <0.2 μM are marked with “++.”)
14,"CN1CCC[C@H]1C(=O)N1CCN(c2ccncc2NC(=O)c2c(N)nn3cc(F)cnc23)CC1 [I-N-198, (S)-2-amino-6-fluoro-N-(4-(4-(1-methylpyrrolidine-2-carbonyl)piperazin-1-yl)pyridin-3-yl)pyrazolo[1,5-a]pyrimidine-3-carboxamide]",++ (Compounds with a Cisplatin sensitization value >0.02 μM but <0.2 μM are marked with “++.”)
15,"Nc1nn2cc(F)cnc2c1C(=O)Nc1cncc(F)c1N1CCC(S(=O)(=O)N2CCOCC2)CC1 [I-N-155, 2-amino-6-fluoro-N-(5-fluoro-4-(4-(morpholinosulfonyl)piperidin-1-yl)pyridin-3-yl)pyrazolo[1,5-a]pyrimidine-3-carboxamide]",+++ (Compounds with a Cisplatin sensitization value of <0.02 μM are marked with “+++.”)
16,"CN1CCC(c2ccncc2NC(=O)c2c(N)nn3cc(F)cnc23)CC1 [I-C-1, 2-amino-6-fluoro-N-(4-(1-methylpiperidin-4-yl)pyridin-3-yl)pyrazolo[1,5-a]pyrimidine-3-carboxamide]",++ (Compounds with a Cisplatin sensitization value >0.02 μM but <0.2 μM are marked with “++.”)
17,"COCCn1cncc1-c1ccncc1NC(=O)c1c(N)nn2cc(F)cnc12 [I-C-83, 2-amino-6-fluoro-N-(4-(1-(2-methoxyethyl)-1H-imidazol-5-yl)pyridin-3-yl)pyrazolo[1,5-a]pyrimidine-3-carboxamide]",++ (Compounds with a Cisplatin sensitization value >0.02 μM but <0.2 μM are marked with “++.”)
18,"Nc1nn2cc(F)cnc2c1C(=O)Nc1cnccc1N1CCN([C@@H]2CCOC2)CC1 [I-N-10, (R)-2-amino-6-fluoro-N-(4-(4-(tetrahydrofuran-3-yl)piperazin-1-yl)pyridin-3-yl)pyrazolo[1,5-a]pyrimidine-3-carboxamide]",++ (Compounds with a Cisplatin sensitization value >0.02 μM but <0.2 μM are marked with “++.”)
19,"CN1CCN(c2ccncc2NC(=O)c2c(N)nn3cc(Cl)cnc23)CC1CO (stereo not drawn) [I-N-63, 2-amino-6-chloro-N-(4-(3-(hydroxymethyl)-4-methylpiperazin-1-yl)pyridin-3-yl)pyrazolo[1,5-a]pyrimidine-3-carboxamide]",++ (Compounds with a Cisplatin sensitization value >0.02 μM but <0.2 μM are marked with “++.”)
20,"Nc1nn2cc(F)cnc2c1C(=O)Nc1cnccc1Oc1cccnc1 [I-O-7, 2-amino-6-fluoro-N-(4-(pyridin-3-yloxy)pyridin-3-yl)pyrazolo[1,5-a]pyrimidine-3-carboxamide]",++ (Compounds with a Cisplatin sensitization value >0.02 μM but <0.2 μM are marked with “++.”)
21,"Nc1nn2cc(F)cnc2c1C(=O)Nc1cnccc1N1CCN(S(=O)(=O)C2CCOCC2)CC1 [I-N-177, 2-amino-6-fluoro-N-(4-(4-((tetrahydro-2H-pyran-4-yl)sulfonyl)piperazin-1-yl)pyridin-3-yl)pyrazolo[1,5-a]pyrimidine-3-carboxamide]",+++ (Compounds with a Cisplatin sensitization value of <0.02 μM are marked with “+++.”)
22,"Cn1ccc(-c2ccncc2NC(=O)c2c(N)nn3cc(F)cnc23)n1 [I-C-68, 2-amino-6-fluoro-N-(4-(1-methyl-1H-pyrazol-3-yl)pyridin-3-yl)pyrazolo[1,5-a]pyrimidine-3-carboxamide]",+ (Compounds with a Cisplatin sensitization value >0.2 μM but <5 μM are marked with “+.”)
23,"Cc1ncnn1-c1c(F)cncc1NC(=O)c1c(N)nn2cc(F)cnc12 [I-N-242, 2-amino-6-fluoro-N-(5-fluoro-4-(5-methyl-1H-1,2,4-triazol-1-yl)pyridin-3-yl)pyrazolo[1,5-a]pyrimidine-3-carboxamide]",+ (Compounds with a Cisplatin sensitization value >0.2 μM but <5 μM are marked with “+.”)
24,"Cc1nn(C)cc1-c1ccncc1NC(=O)c1c(N)nn2cc(F)cnc12 [I-C-63, 2-amino-N-(4-(1,3-dimethyl-1H-pyrazol-4-yl)pyridin-3-yl)-6-fluoropyrazolo[1,5-a]pyrimidine-3-carboxamide]",+++ (Compounds with a Cisplatin sensitization value of <0.02 μM are marked with “+++.”)
25,"CN(C)CCNC(=O)C1CCN(c2c(F)cncc2NC(=O)c2c(N)nn3cc(F)cnc23)CC1 [I-G-30, 2-amino-N-(4-(4-((2-(dimethylamino)ethyl)carbamoyl)piperidin-1-yl)-5-fluoropyridin-3-yl)-6-fluoropyrazolo[1,5-a]pyrimidine-3-carboxamide]",+++ (Compounds with a Cisplatin sensitization value of <0.02 μM are marked with “+++.”)
26,"Nc1nn2cc(F)cnc2c1C(=O)Nc1cncc(C2CC2)c1N1CCN([C@H]2CCOC2)CC1 [I-N-120, (S)-2-amino-N-(5-cyclopropyl-4-(4-(tetrahydrofuran-3-yl)piperazin-1-yl)pyridin-3-yl)-6-fluoropyrazolo[1,5-a]pyrimidine-3-carboxamide]",+++ (Compounds with a Cisplatin sensitization value of <0.02 μM are marked with “+++.”)
27,"Nc1nn2cc(F)cnc2c1C(=O)Nc1cncc(Cl)c1N1CCC(O)C1 (stereo not drawn) [I-N-284, 2-amino-N-(5-chloro-4-(3-hydroxypyrrolidin-1-yl)pyridin-3-yl)-6-fluoropyrazolo[1,5-a]pyrimidine-3-carboxamide]",+++ (Compounds with a Cisplatin sensitization value of <0.02 μM are marked with “+++.”)
